Test results as given in the supplement of paper PMC10307832.

What was measured:
Assay in all cases: relative viability (nuclei count vs DMSO), 5 days (fraction); higher = more cells survive
[1] = test system: LCLC-103H
Outline: (§1)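 Relative viability equals treated-well nuclei counts divided by vehicle-well nuclei counts. Counts came from 4× images of lung cancer cell lines grown in 1536-well plates for 5 days after pin-tool dosing on the day after seeding. Dosing used one drug alone or a fixed anchor-drug dose plus five library-drug doses (not always all listed) in √10 steps, and values are medians of duplicate plates.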

[2] = test system: NCI-H520
Outline: as §1

[3] = test system: PC-3 [JPC-3]
Outline: as §1

[4] = test system: NCI-H1793
Outline: as §1

[5] = test system: NCI-H838
Outline: as §1

[6] = test system: LOU-NH91
Outline: as §1

[7] = test system: NCI-H1651
Outline: as §1

[8] = test system: 201T
Outline: as §1

[9] = test system: NCI-H23
Outline: as §1

[10] = test system: NCI-H647
Outline: as §1

[11] = test system: LXF-289
Outline: as §1

[12] = test system: NCI-H2405
Outline: as §1

[13] = test system: RERF-LC-KJ
Outline: as §1

[14] = test system: NCI-H2347
Outline: as §1

[15] = test system: HARA
Outline: as §1

[16] = test system: A-427
Outline: as §1

[17] = test system: UMC-11
Outline: as §1

[18] = test system: LK-2
Outline: as §1

[19] = test system: HCC-78
Outline: as §1

[20] = test system: LCLC-97TM1
Outline: as §1

[21] = test system: NCI-H1650
Outline: as §1

[22] = test system: NCI-H522
Outline: as §1

[23] = test system: COR-L23
Outline: as §1

For Cc1cn(-c2cc(NC(=O)c3ccc(C)c(Nc4nccc(-c5cccnc5)n4)c3)cc(C(F)(F)F)c2)cn1 [Nilotinib] + O=C(c1cc(Cc2n[nH]c(=O)c3ccccc23)ccc1F)N1CCN(C(=O)C2CC2)CC1 [Olaparib] (partner 8 µM), which relative viability ([1]; first compound 0.001 µM) is on record?
Its relative viability is 0.761.

And the relative viability ([1]; first compound 0.003162 µM)?
Its relative viability is 0.903.

What about the relative viability ([1]; first compound 0.01 µM) of the same compound?
Its relative viability is 0.969.

And the relative viability ([1]; first compound 0.03162 µM)?
The relative viability was 0.749.

What about the relative viability ([1]; first compound 0.1 µM) of the same compound?
The relative viability was 0.8.

And the relative viability ([2]; first compound 0.001 µM)?
The relative viability was 0.321.

And the relative viability ([2]; first compound 0.003162 µM)?
The relative viability was 0.293.

What about the relative viability ([2]; first compound 0.01 µM) of the same compound?
Its relative viability is 0.305.

And the relative viability ([2]; first compound 0.03162 µM)?
Its relative viability is 0.316.

And the relative viability ([2]; first compound 0.1 µM)?
Its relative viability is 0.294.

And the relative viability ([3]; first compound 0.001 µM)?
Its relative viability is 1.05.

And the relative viability ([3]; first compound 0.01 µM)?
The relative viability was 1.35.

And the relative viability ([3]; first compound 0.03162 µM)?
Its relative viability is 1.16.

What about the relative viability ([3]; first compound 0.1 µM) of the same compound?
The relative viability was 0.829.

And the relative viability ([4]; first compound 0.001 µM)?
Its relative viability is 0.863.

And the relative viability ([4]; first compound 0.003162 µM)?
The relative viability was 0.822.

What about the relative viability ([4]; first compound 0.01 µM) of the same compound?
Its relative viability is 1.13.

And the relative viability ([4]; first compound 0.03162 µM)?
Its relative viability is 0.706.

What about the relative viability ([4]; first compound 0.1 µM) of the same compound?
The relative viability was 0.677.

What about the relative viability ([5]; first compound 0.001 µM) of the same compound?
Its relative viability is 0.789.

What about the relative viability ([5]; first compound 0.003162 µM) of the same compound?
The relative viability was 1.01.

What about the relative viability ([5]; first compound 0.01 µM) of the same compound?
Its relative viability is 0.878.

And the relative viability ([5]; first compound 0.03162 µM)?
Its relative viability is 0.838.

What about the relative viability ([5]; first compound 0.1 µM) of the same compound?
The relative viability was 0.759.

What about the relative viability ([6]; first compound 0.001 µM) of the same compound?
Its relative viability is 0.877.

And the relative viability ([6]; first compound 0.003162 µM)?
The relative viability was 1.05.

And the relative viability ([6]; first compound 0.01 µM)?
Its relative viability is 1.09.

What about the relative viability ([6]; first compound 0.03162 µM) of the same compound?
Its relative viability is 0.94.

And the relative viability ([6]; first compound 0.1 µM)?
The relative viability was 0.997.

What about the relative viability ([7]; first compound 0.001 µM) of the same compound?
Its relative viability is 0.173.

And the relative viability ([7]; first compound 0.003162 µM)?
The relative viability was 0.187.

And the relative viability ([7]; first compound 0.01 µM)?
Its relative viability is 0.168.

And the relative viability ([7]; first compound 0.03162 µM)?
Its relative viability is 0.156.

And the relative viability ([7]; first compound 0.1 µM)?
Its relative viability is 0.181.

What about the relative viability ([8]; first compound 0.001 µM) of the same compound?
The relative viability was 0.843.

What about the relative viability ([8]; first compound 0.003162 µM) of the same compound?
The relative viability was 0.876.

And the relative viability ([8]; first compound 0.01 µM)?
The relative viability was 0.959.

And the relative viability ([8]; first compound 0.03162 µM)?
The relative viability was 0.935.

And the relative viability ([8]; first compound 0.1 µM)?
Its relative viability is 0.869.

And the relative viability ([9]; first compound 0.001 µM)?
Its relative viability is 0.353.

And the relative viability ([9]; first compound 0.003162 µM)?
Its relative viability is 0.302.

What about the relative viability ([9]; first compound 0.01 µM) of the same compound?
The relative viability was 0.321.

And the relative viability ([9]; first compound 0.03162 µM)?
Its relative viability is 0.295.

What about the relative viability ([9]; first compound 0.1 µM) of the same compound?
Its relative viability is 0.331.

What about the relative viability ([10]; first compound 0.001 µM) of the same compound?
Its relative viability is 0.527.

What about the relative viability ([10]; first compound 0.003162 µM) of the same compound?
The relative viability was 0.735.

And the relative viability ([10]; first compound 0.01 µM)?
Its relative viability is 0.649.

What about the relative viability ([10]; first compound 0.03162 µM) of the same compound?
The relative viability was 0.482.

What about the relative viability ([10]; first compound 0.1 µM) of the same compound?
Its relative viability is 0.544.

What about the relative viability ([11]; first compound 0.001 µM) of the same compound?
The relative viability was 1.07.

And the relative viability ([11]; first compound 0.003162 µM)?
Its relative viability is 1.37.

And the relative viability ([11]; first compound 0.01 µM)?
Its relative viability is 1.26.

And the relative viability ([11]; first compound 0.03162 µM)?
The relative viability was 1.

And the relative viability ([11]; first compound 0.1 µM)?
Its relative viability is 1.06.

And the relative viability ([12]; first compound 0.001 µM)?
Its relative viability is 0.837.

And the relative viability ([12]; first compound 0.003162 µM)?
Its relative viability is 0.878.

What about the relative viability ([12]; first compound 0.01 µM) of the same compound?
The relative viability was 0.858.

What about the relative viability ([12]; first compound 0.03162 µM) of the same compound?
Its relative viability is 0.728.

What about the relative viability ([12]; first compound 0.1 µM) of the same compound?
Its relative viability is 0.629.

And the relative viability ([13]; first compound 0.001 µM)?
The relative viability was 0.816.

And the relative viability ([13]; first compound 0.003162 µM)?
Its relative viability is 1.03.

What about the relative viability ([13]; first compound 0.01 µM) of the same compound?
Its relative viability is 0.976.

What about the relative viability ([13]; first compound 0.03162 µM) of the same compound?
Its relative viability is 0.826.

And the relative viability ([13]; first compound 0.1 µM)?
Its relative viability is 0.892.

What about the relative viability ([14]; first compound 0.001 µM) of the same compound?
The relative viability was 0.559.

And the relative viability ([14]; first compound 0.003162 µM)?
The relative viability was 0.664.

And the relative viability ([14]; first compound 0.01 µM)?
The relative viability was 0.633.

What about the relative viability ([14]; first compound 0.03162 µM) of the same compound?
The relative viability was 0.57.

What about the relative viability ([14]; first compound 0.1 µM) of the same compound?
The relative viability was 0.493.

And the relative viability ([15]; first compound 0.001 µM)?
Its relative viability is 0.639.

And the relative viability ([15]; first compound 0.003162 µM)?
The relative viability was 0.867.

And the relative viability ([15]; first compound 0.01 µM)?
Its relative viability is 0.676.

What about the relative viability ([15]; first compound 0.03162 µM) of the same compound?
The relative viability was 0.535.

And the relative viability ([15]; first compound 0.1 µM)?
The relative viability was 0.747.

And the relative viability ([16]; first compound 0.001 µM)?
The relative viability was 0.76.

And the relative viability ([16]; first compound 0.003162 µM)?
The relative viability was 0.874.

And the relative viability ([16]; first compound 0.01 µM)?
The relative viability was 0.86.

What about the relative viability ([16]; first compound 0.03162 µM) of the same compound?
The relative viability was 0.804.

And the relative viability ([16]; first compound 0.1 µM)?
Its relative viability is 0.936.

And the relative viability ([17]; first compound 0.001 µM)?
The relative viability was 0.39.

And the relative viability ([17]; first compound 0.003162 µM)?
Its relative viability is 0.384.

And the relative viability ([17]; first compound 0.01 µM)?
Its relative viability is 0.337.

And the relative viability ([17]; first compound 0.03162 µM)?
Its relative viability is 0.341.

And the relative viability ([17]; first compound 0.1 µM)?
Its relative viability is 0.279.

And the relative viability ([18]; first compound 0.001 µM)?
Its relative viability is 0.673.

What about the relative viability ([18]; first compound 0.003162 µM) of the same compound?
The relative viability was 0.947.

And the relative viability ([18]; first compound 0.01 µM)?
The relative viability was 0.839.

And the relative viability ([18]; first compound 0.03162 µM)?
Its relative viability is 0.453.

What about the relative viability ([18]; first compound 0.1 µM) of the same compound?
Its relative viability is 0.681.

And the relative viability ([19]; first compound 0.001 µM)?
Its relative viability is 0.748.

What about the relative viability ([19]; first compound 0.003162 µM) of the same compound?
The relative viability was 0.602.

What about the relative viability ([19]; first compound 0.01 µM) of the same compound?
The relative viability was 0.877.

And the relative viability ([19]; first compound 0.03162 µM)?
Its relative viability is 0.768.

What about the relative viability ([19]; first compound 0.1 µM) of the same compound?
The relative viability was 0.752.

And the relative viability ([20]; first compound 0.001 µM)?
Its relative viability is 0.339.

What about the relative viability ([20]; first compound 0.003162 µM) of the same compound?
The relative viability was 0.467.

What about the relative viability ([20]; first compound 0.01 µM) of the same compound?
The relative viability was 0.461.

What about the relative viability ([20]; first compound 0.03162 µM) of the same compound?
Its relative viability is 0.446.

And the relative viability ([20]; first compound 0.1 µM)?
The relative viability was 0.343.

And the relative viability ([21]; first compound 0.001 µM)?
The relative viability was 0.776.

And the relative viability ([21]; first compound 0.003162 µM)?
Its relative viability is 0.948.

And the relative viability ([21]; first compound 0.01 µM)?
Its relative viability is 0.777.

What about the relative viability ([21]; first compound 0.03162 µM) of the same compound?
Its relative viability is 0.756.

What about the relative viability ([21]; first compound 0.1 µM) of the same compound?
The relative viability was 1.08.

What about the relative viability ([22]; first compound 0.01 µM) of the same compound?
The relative viability was 0.66.

And the relative viability ([22]; first compound 0.03162 µM)?
Its relative viability is 0.625.

And the relative viability ([22]; first compound 0.1 µM)?
Its relative viability is 0.565.

And the relative viability ([23]; first compound 0.001 µM)?
The relative viability was 0.356.

And the relative viability ([23]; first compound 0.003162 µM)?
The relative viability was 0.319.

And the relative viability ([23]; first compound 0.01 µM)?
The relative viability was 0.396.

And the relative viability ([23]; first compound 0.03162 µM)?
The relative viability was 0.306.

What about the relative viability ([23]; first compound 0.1 µM) of the same compound?
Its relative viability is 0.288.
